Measurements from ChEMBL document CHEMBL5365505, “Targeted Degradation of CDK4/6: An Innovative Approach to Overcoming Cancer Drug Resistance” (ACS Med Chem Lett, 2023).
“And” between values parts separate entries of the source, which are not always exact repeats. Equal entries are not always repeated.

Assays:
Format in all cases: ADME, organism-based
Details in all cases: in vivo
[1] = Tmax in C57BL/6 mouse at 10 mg/kg, po measured for 24 hrs by LC/MS/MS analysis
[2] = AUC (infinity) in C57BL/6 mouse at 10 mg/kg, po measured for 24 hrs by LC/MS/MS analysis; design: dose 10 mg/kg, time 24 hrs, route po
[3] = AUClast in C57BL/6 mouse at 10 mg/kg, po measured for 24 hrs by LC/MS/MS analysis; design: dose 10 mg/kg, time 24 hrs, route po
[4] = Cmax in C57BL/6 mouse at 10 mg/kg, po measured for 24 hrs by LC/MS/MS analysis; design: time 24 hrs, dose 10 mg/kg, route po
[5] = Half life in C57BL/6 mouse at 10 mg/kg, po measured for 24 hrs by LC/MS/MS analysis
[6] = Cmax in C57BL/6 mouse at 25 mg/kg, ip measured for 24 hrs by LC/MS/MS analysis; design: dose 25 mg/kg, time 24 hrs, route ip
[7] = Tmax in C57BL/6 mouse at 25 mg/kg, ip measured for 24 hrs by LC/MS/MS analysis
[8] = AUClast in C57BL/6 mouse at 25 mg/kg, ip measured for 24 hrs by LC/MS/MS analysis; design: dose 25 mg/kg, time 24 hrs, route ip
[9] = Half life in C57BL/6 mouse at 25 mg/kg, ip measured for 24 hrs by LC/MS/MS analysis
[10] = AUC (infinity) in C57BL/6 mouse at 25 mg/kg, ip measured for 24 hrs by LC/MS/MS analysis; design: time 24 hrs, dose 25 mg/kg, route ip

Tmax [1]	AUC(0-inf) [2]	AUC(0-t) at 24 h [3]	Cmax [4]	half-life [5]	Cmax [6]	Tmax [7]	AUC(0-t) at 24 h [8]	half-life [9]	AUC(0-inf) [10]	Compound
1 h	2730 ng·h/mL	2470 ng·h/mL	724 ng/mL	2.15 h						CC(=O)c1c(C)c2cnc(Nc3ccc(N4CCN(CC5CCN(c6ccc7c(c6)C(=O)N(C6CCC(=O)NC6=O)C7=O)CC5)CC4)cn3)nc2n(C2CCCC2)c1=O (stereo not given)
					2550 ng/mL and 2.6 µM	0.58 h	8210 ng·h/mL	7 h	9230 ng·h/mL	CC(=O)c1c(C)c2cnc(Nc3ccc(N4CCN(CCCCC(=O)N[C@H](C(=O)N5C[C@H](O)C[C@H]5C(=O)N[C@@H](C)c5ccc(-c6scnc6C)cc5)C(C)(C)C)CC4)cn3)nc2n(C2CCCC2)c1=O
